Experimental data reported in US6262036A, “Method for inhibiting RNA translation using chimeric oligonucleoside compounds” (priority 2000, dated 2001).
“And” between values parts separate entries of the source, which are not always exact repeats. Equal values may be shown once.

Assays:
pG1035 (SplicerCAT) = test: Inhibition of CAT expression, splicing target pG1035 (SplicerCAT), in COS-7 cells; assay type: cell-based, African Green Monkey; conditions: 1.0 μM oligomer; ± std error; normalized to protein and luciferase; chimeric oligomers also normalized to pG1036
Experimental: (§1) COS-7 cells were transiently transfected with plasmids encoding either a target reporter gene or a control non-target reporter gene. These cells were then treated with various chimeric antisense or control oligomers and then assayed for the expression of the reporter genes.
pG1035: Splicer CAT, inserted into a pRc/CMV vector
COS 7 cells were plated at 1.5×10^5 cells/well in a 12 well plate format on the day before transfections began. All cultures were maintained at 37° C. On the next day, the transfection mixes were prepared. For each well of a 12 well plate, 1.0 μM oligomer was combined with 1 μg pGL2 or pSVβ+1 μg of the target CAT plasmid in 0.5 ml of Optimem (Gibco/BRL) and 18.75 μg Transfectam (for chimeric oligomers, Promega) or Lipofectamine (for all PS oligomers, Promega) also in 0.5 ml of Optimem. These quantities gave a 6.9 or 4.5 or 2.0 to 1 cationic lipid to oligomer plus DNA ratio, respectively, in one milliliter total. pGL2 and pSVβ served as transfection and oligomer specificity controls. […]
(§2) The cell lysates were then assayed for CAT, and luciferase or […] activity, and the total protein concentration was determined as described below. […]
(§3) […] of reaction mixture was then added to each tube, which was then incubated for, typically, approximately 1 hour in a 37° C. oven. […] The sample was then counted in a Packard scintillation counter.
(§4) This assay was performed generally as follows according to standard procedures. 20 μof lysate was combined with 100 μl of luciferase assay reagent (Promega) and counted in a scintillation counter (Packard) within 20 seconds (as recommended by Promega). […]
Six μl of lysate per well was added, followed by 300 μl Coomassie Protein Assay Reagent (Pierce) per well. The individual sample plates were then read at A570 on a microplate reader (Molecular Devices). […]
Oligomers were transfected into COS-7 cells and lysates were made and assayed as described previously. […] N.D.=not determined. […]

pG1036 (wild-type CAT) = test: Inhibition of CAT expression, non-splicing control pG1036 (wild-type CAT), in COS-7 cells; assay type: cell-based, African Green Monkey; conditions: 1.0 μM oligomer; ± std error; normalized to protein and luciferase
Experimental: as §1
pG1036: Wild-type CAT, inserted into a pRc/CMV vector
COS 7 cells were plated at 1.5×10^5 cells/well in a 12 well plate format on the day before transfections began. All cultures were maintained at 37° C. On the next day, the transfection mixes were prepared. […] These quantities gave a 6.9 or 4.5 or 2.0 to 1 cationic lipid to oligomer plus DNA ratio, respectively, in one milliliter total. pGL2 and pSVβ served as transfection and oligomer specificity controls. […]
as §2, §3, §4

[1] = test system: complementary synthetic RNA target; test: Binding affinities of chimeric backbone oligomers to RNA (Example 35); parameters: KA (37° C.): unit not given here; conditions: for Tm: 1:1 molar ratio, 2.4 micromolar total strand, pH 7.2, 100 mM NaCl; for KA (37° C.): two-state model fit
Experimental: The following oligonucleotides were tested for their ability to hybridize to a complementary synthetic RNA target.
The bases shown in parentheses contain the backbone modification indicated in the middle set of brackets for each description, and likewise the terminal portions of the oligomers contain linkage structures as shown in the terminal sets of brackets. The PS/DE notation indicates an alternating array of bases beginning with a phosphorothioate linkage. For example, if there are five bases in a sequence denoted as PS/DE, they include three phosphorothioate (PS) bonds and two phosphodiester (DE) bonds.
Each oligomer was mixed with its complementary synthetic RNA target in a 1:1 molar ratio in a buffer system consisting of 20 mM sodium phosphate buffer (pH 7.2), 100 mM NaCl, 0.03% potassium sarkosylate and 0.1 mM EDTA; total strand concentration=2.4 micromolar. The resulting solutions were heated to 70° C. and slowly cooled to 4° C. over a time period of approximately 4-6 hours. […] The binding constants at 37° C.

S1-endonuclease = test: Stability to nuclease digestion by S1-endonuclease (Example 37); assay type: in vitro ADME; conditions: S1-endonuclease 0.5 units/mL, pH 5.0, 37° C.; 50% full length oligomer digested
Experimental: The following oligomers were tested for nuclease stability in the presence of S1-endonuclease.
S1-endonuclease was purchased from Promega Corp. (Catalog #E576B, Madison, Wis.). Aliquots of each chimeric oligomer (0.05-0.075 OD260 units) were individually added to polypropylene microcentrifuge tubes containing S1-endonuclease (0.5 units/mL) in 30 mM sodium acetate (pH 5.0), 50 mM NaCl, 1.0 mM zinc acetate and 5% glycerol; total reaction volume=10 μL. These tubes were incubated at 37° C. for specified time periods, quickly frozen in dry ice and then stored in a freezer at -20° C. […] Column=Vydac Protein C4 (catalog #214TP54, 4.9 mm i.d.×250 mm long). Buffer A=50 mM triethylammonium acetate (pH 7)/1% acetonitrile; Buffer B=50 mM triethylammonium acetate (pH 7)/50% acetonitrile. […] The samples were diluted with water (50 μL) and injected onto the column using a 100 μL sample loop. Peaks corresponding to full length oligomer and its degradation products were detected by monitoring at 260 nm. The amount of degradation occurring in each reaction was determined by measuring the reduction in peak area for the full-length oligomer (identified by comparison to an external control and/or by coinjecting undigested oligomer as an internal control). The data is shown in tabular format below, and in graphic format in FIG. 1.

[2] = Stability to nuclease digestion in 10% fetal calf serum (Example 38); assay type: in vitro ADME; conditions: pH 8.0, 37° C., 50% full length oligomer digested, first three time points
Experimental: Multiple samples of each chimeric oligomer were prepared in 1.5 mL polypropylene microcentrifuge tubes on ice. Each sample contained oligomer (0.1 OD260 unit), 10% fetal calf serum (FCS, Gemini Bioproducts, Calabasas, Calif.), 20 mM HEPES (pH 8.0), 0.2% paramethylsulfonyl fluoride (PMSF), 175 mM KCl, 0.1 mM dithiothreitol, 0.1 mM EDTA, 2 mM MgCl2 and 4% glycerol--total volume=100 μL. The samples were incubated at 37° C. for specified time periods and then diluted with 0.4% NP-40/acetonitrile (35 μL), quickly frozen on dry ice and stored at -20° C. Samples were then individually thawed, diluted with water (635 μL) and analyzed immediately by reversed-phase HPLC according to the method given in the preceding example (except that a 2 mL sample loop was used to load the samples onto the column). Results are shown in tabular format below, and in graphical format in FIG. 2.

target mRNA [3] = test: Cell-free translation of target mRNA in rabbit reticulocyte lysates (Example 39); assay type: biochemical
Experimental: (§5) A target mRNA having complementarity to these oligomers at the initiation codon region was prepared by standard cloning techniques with […] catalyzed by T7 polymerase (Promega MEGAscript kit for uncapped RNA), according to the manufacturer's protocol. Control CAT mRNA was obtained from GIBCO as a control for specificity.
(§6) Target mRNA and control CAT mRNA were translated in a cell-free translation assay in rabbit reticulocyte lysates (Promega), in the presence of ^35 [S]-Cys (NEN/DuPont) following the manufacturer's directions. Oligos 2567-1 and 3169-1 were added to individual translation reactions at […], final concentrations. RNAse-H (Promega Corp.) was added to all the translation reactions at 0.04 units/ul. Each condition was run in triplicate. Translation reactions were incubated at 37° C. for 1 hour. At the end of the translation reactions, proteins were denatured with Laemmli Sample Buffer (Novex) and the amounts of target proteins synthesized in each case were evaluated after immunoprecipitation with an hyperimmune antibody serum followed by gel fractionation of the protein products (10-20% gradient SDS-PAGE gels, Novex) and phosphoimage analysis. The amount of control CAT protein synthesized in each case was evaluated after gel fractionation of one aliquot of the denatured translation reaction (10-20% gradient SDS-PAGE gels, Novex) and phosphoimage analysis.

control CAT mRNA = test: Cell-free translation of control CAT mRNA in rabbit reticulocyte lysates (Example 39); assay type: biochemical; conditions: 0.2 or 1 μM
Experimental: as §5
as §6, with “Translation reactions were incubated at 37° C. for 1 hour.” left out

target mRNA [4] = test: Cleavage of target mRNA in the presence of RNAseH (Example 40); assay type: biochemical; conditions: for % of target mRNA cleavage: 30 minutes, estimated by visual inspection of the gel; for specificity of target mRNA cleavage: denaturing gel
Experimental: A target mRNA having complementarity to these oligomers at the initiation codon region was prepared by standard cloning techniques with transcription using a T7 polymerase cell-free assay (Promega MEGAscript kit for uncapped RNA), according to the manufacturer's protocol. The resulting mRNA transcript is approximately 340 nt in length.
The ability to cleave this target mRNA, in the presence of RNAseH and either of oligomers 2567-1 {[MP]-[DE]-[MP]} and 3169-1 {[MP(Rp)/DE]-[DE]-[MP(Rp)/DE]} was determined as follows.
Cell-free transcribed mRNA (100 nM) was incubated at 37° C., in a cell-free translation buffer (containing 3.5 mM MgCl2, 25 mM KCl, 70 mM NaCl and 20 mM potassium acetate), in the presence of 0.04 units/μl of RNAseH (Promega) and either of oligomers 2567-1 or 3169-1 at 0, 0.01, 0.1, 1, or 10 μM. After 30 minutes, the RNA was extracted, denatured and run in a denaturing gel. After the run, the RNA was stained with ethidium bromide and its integrity was determined by visual observation of the RNA bands present in the gel.

[5] = test system: endogenous eukaryotic RNaseH derived from HeLa cell nuclear extracts; assay type: biochemical; conditions: 10 μM oligomer, 1 μM RNA target

Row | Substance | percent inhibition of CAT expression, pG1035 = splicing (pG1035 (SplicerCAT)) | percent inhibition of CAT expression, pG1036 = non-splicing (pG1036 (wild-type CAT)) | Tm [1] | KA (37° C.) [1] | Half-Life for Degradation (S1-endonuclease) | Half-Life for Degradation [2] | inhibition of target mRNA translation (target mRNA [3]; 0.2 μM) | inhibition of target mRNA translation (target mRNA [3]; 1 μM) | inhibition of control CAT mRNA translation (control CAT mRNA) | % of target mRNA cleavage (target mRNA [4]; 0.01 μM) | % of target mRNA cleavage (target mRNA [4]; 0.1 μM) | % of target mRNA cleavage (target mRNA [4]; 1 μM) | % of target mRNA cleavage (target mRNA [4]; 10 μM) | specificity of target mRNA cleavage (target mRNA [4]) | RNaseH Cleavage after 2 Hrs. at 37° C. [5]
1 | XV-6: 24mer, all phosphorothioate: 5' cac tca atc aat gac tag tct gca 3' (CACTCAATCAATGACTAGTCTGCA; all phosphorothioate, sugars by position and methylation of C not given here) | 23 ± 15% | 30 ± 4% |  |  |  |  |  |  |  |  |  |  |  |  | 
2 | 2567-1: 5'-GTCTTCCA(TGCAT)GTTGTCC-3' [MP][DE][MP] [Oligomer 2567-1] |  |  | 45.6 °C | 2.9 × 10^7 | 1.7 h | 5.8 h | approximately 0% | approximately 50% | little inhibition | 2% | 15% | ~ 50% and 50% | 80% | good specificity, cleaving the target mRNA in one position | 
3 | 3169-1: 5'-GTCTTCCA(TGCAT)GTTGTCC-3' [MP(Rp)/DE][DE][MP(Rp)/DE] [Oligomer 3169-1] |  |  | 62.6 °C | 6.0 × 10^14 | 0.9 h | 3.4 h | approximately 50% | ~90% | little inhibition | 5% | 40% | ~ 98% and 98% | 100% | good specificity, cleaving the target mRNA in one position | 52.0%
4 | XV-5: 24mer, all phosphorothioate: 5' cac tca cct tta ggg aaa tag gcc 3' (CACTCACCTTTAGGGAAATAGGCC; all phosphorothioate, sugars by position and methylation of C not given here) | 32 ± 1% | 35 ± 1% |  |  |  |  |  |  |  |  |  |  |  |  | 
